Reference: patent US7378397B2 (The Provost, Fellows and Scholars of the College of the …, priority 2000, dated 2008)
“Also recorded” adds a separate entry of the source. One block for each compound: values may come before it. Where a SMILES comes first, the peptide text is derived from it. [ ]: non-standard residue; d: D form. The star is where a group is joined. hPhe = N[C@@H](CCc1ccccc1)C(=O)O; AMC = Cc1cc(=O)oc2cc(N*)ccc12; pGlu = O=C1CC[C@@H](C(=O)O)N1; Phg = N[C@H](C(=O)O)c1ccccc1

Columns and labels:
TRH-DE [1] = biological target: T1, TRH-DE (Sus scrofa, UniProt A0A287AP33); test: HPLC assay of peptide hydrolysis by TRH-DE (Glp production); assay type: biochemical, porcine; details: for hydrolysis by TRH-DE (release of Glp): 1 mM peptide incubated with TRH-DE 18 h at 37° C., HPLC; for Rate of hydrolysis: peptide 1 mM, 37° C., Glp production by HPLC, mean±S.D.
T1 construct: The inventor purified TRH-DE from porcine brain according to purification procedures previously published by Dr. K. Bauer; from tissue; host or cells: porcine brain (TRH-DE); bovine kidney (DPP-IV, gift from Dr. C. H. Williams)
Experimental: (§1) The inventor purified TRH-DE from porcine brain according to purification procedures previously published by Dr. K. Bauer, (Max-Planck-Institut, Hannover, Germany) (1). TRH-DE was purified almost 20,000 fold. […] Dipeptidyl peptidase IV (DPP-IV) (EC 3.4.14.5), purified from bovine kidney (7.7 mg ml^−1, specific activity of 17.5 U mg^−1 with Gly-ProAMC as substrate), was obtained as a gilt from Dr. C. H. Williams (Queen's University Belfast, U.K). (DPP-IV was used as the coupling enzyme used in the fluorometric assays).
(§2) One unit (U) of enzyme activity was defined as that amount catalysing the formation of one μmol of product in one minute under the standard conditions employed. All incubations in the assays described below were carried out in 20 mM potassium phosphate buffer, pH 7.5, at 37° C.
Kinetic analysis of the peptide library using HPLC—The ability of each peptide in the library to act as a TRH-DE substrate was assessed using HPLC. As an initial screen, 1 mM peptide was incubated with 0.8 μg TRH-DE in a total volume of 1 ml for 18 h at 37° C. Control samples were included in which peptide (1 mM) or Glp (0.2 mM-0.8 mM) were incubated under identical conditions in the absence of TRH-DE. TRH-DE activity was terminated by the addition of TFA (0.15% v/v) and samples were then analysed using HPLC as described previously (24). Products resulting from TRH-DE hydrolysis could be separated on a C-18 reverse-phase column (Hypersil, UK) using a linear gradient of 0-70% acetonitrile in 0.08% (v/v) TFA. The concentration of Glp formed by the action of TRH-DE on the peptide library was measured by UV absorbance at 206 nm with a quantitative detection limit of 0.1 mM for a 40 μl injection volume, employing a signal to noise ratio of 10. Following the incubation of each peptide with TRH-DE, evidence of Glp in the sample was taken to indicate that the peptide was a TRH-DE substrate.
The rates of hydrolysis for each of those peptides identified as substrates were then compared by measuring Gip production using microassays with shorter incubation times. In these assays peptide (1 mM) was incubated at 37° C. in a total volume of 100 μl. 0.8-3.2 μg TRH-DE and incubations times of 5 min to 18 h were used routinely. Measurements were made in triplicate. The rate of TRH-OH hydrolysis was also measured by this method.

TRH-DE [2] = biological target: T1, TRH-DE; test: continuous coupled fluorometric TRH-DE assay (TRHAMC substrate, DPP-IV coupling enzyme); assay type: biochemical, porcine; details: for inhibition at 1000 µM: peptide 1 mM, 5 μM TRHAMC substrate
Experimental: as §1, §2
Kinetic analysis of peptides that are not hydrolysed by TRH-DE. A recently-developed continuous coupled fluorometric assay (23) was used to investigate the ability of those library peptides that were not hydrolysed by TRH-DE to inhibit TRHAMC degradation by TRH-DE. In this assay, TRHAMC is the substrate and dipeptidyl peptidase IV (DPP-IV) (EC 3.4.14.5) is the coupling enzyme. The reaction sequence is:
The reaction was monitored continuously by measuring the increase in AMC fluorescence. A linear progress curve with no discernible lag period was observed when the reaction was monitored over a period of 10 minutes. Nevertheless, data sampling was not commenced until 100 s from the start of the reaction to ensure measurements were taken after a steady state had been reached (see Ref. 23).
In a preliminary experiment, the peptides were screened for their ability to inhibit TRH-DE activity. The initial rate of TRHAMC hydrolysis by TRH-DE was measured by incubating 5 μM TRHAMC with 1.23 μg DPP-IV and 0.32 μg TRH-DE, both in the absence and presence of each library peptide (1 mM final concentration) under standard assay conditions (23). In each case the percentage inhibition (i%) was calculated using the equation i%=100(1-vi/vo), where vi and vo are the initial velocities in the presence and absence of peptide, respectively.
Since these peptides were poor inhibitors they were not examined further. The Ki values for the remainder of the peptides were determined by measuring their effects on TRHAMC degradation by TRH-DE using the continuous assay. Data were collected in duplicate at five different substrate concentrations and at least three different concentrations of each peptide.
Reversibility and time dependence of the inhibition produced by Glp-Gln-ProNH2, Glp-Asn-ProNH2 and Glp-Asn-ProAMC were examined by initially preincubating TRH-DE with each peptide at 37° C. for various periods up to 75 min. To investigate time dependence, the enzyme-peptide solution was subsequently added to the reaction mixture containing TRHAMC, DPP-IV, buffer and peptide, and TRH-DE activity was measured using the continuous assay. The final concentration of Glp-Gln-ProNH2, Glp-Asn-ProNH2 and Glp-Asn-ProAMC used was 400, 160 and 1 μM, respectively. […] TRH-DE activity was not affected by pre-incubation at 37° C.
Fluorescence measurements were made using a Perkin Elmer LS 50B Luminescence Spectrometer fitted with a thernostated cell holder. Wavelengths for excitation and emission were set at 370 nm and 440 nm, respectively, with slit widths of 10 nm and 5 nm, respectively.

[3] = calculated from percent inhibition measured in duplicate at 5 μM substrate
[4] = non-linear regression, five TRHAMC concentrations and at least three peptide concentrations, mean±S.D. (n=3)
[5] = estimated from <20% inhibition at 1 mM peptide with the competitive inhibition relationship
[6] = from the percent inhibition (n = 3) in the presence of 5 μM substrate

T1 sequence (A0A287AP33 1-1066): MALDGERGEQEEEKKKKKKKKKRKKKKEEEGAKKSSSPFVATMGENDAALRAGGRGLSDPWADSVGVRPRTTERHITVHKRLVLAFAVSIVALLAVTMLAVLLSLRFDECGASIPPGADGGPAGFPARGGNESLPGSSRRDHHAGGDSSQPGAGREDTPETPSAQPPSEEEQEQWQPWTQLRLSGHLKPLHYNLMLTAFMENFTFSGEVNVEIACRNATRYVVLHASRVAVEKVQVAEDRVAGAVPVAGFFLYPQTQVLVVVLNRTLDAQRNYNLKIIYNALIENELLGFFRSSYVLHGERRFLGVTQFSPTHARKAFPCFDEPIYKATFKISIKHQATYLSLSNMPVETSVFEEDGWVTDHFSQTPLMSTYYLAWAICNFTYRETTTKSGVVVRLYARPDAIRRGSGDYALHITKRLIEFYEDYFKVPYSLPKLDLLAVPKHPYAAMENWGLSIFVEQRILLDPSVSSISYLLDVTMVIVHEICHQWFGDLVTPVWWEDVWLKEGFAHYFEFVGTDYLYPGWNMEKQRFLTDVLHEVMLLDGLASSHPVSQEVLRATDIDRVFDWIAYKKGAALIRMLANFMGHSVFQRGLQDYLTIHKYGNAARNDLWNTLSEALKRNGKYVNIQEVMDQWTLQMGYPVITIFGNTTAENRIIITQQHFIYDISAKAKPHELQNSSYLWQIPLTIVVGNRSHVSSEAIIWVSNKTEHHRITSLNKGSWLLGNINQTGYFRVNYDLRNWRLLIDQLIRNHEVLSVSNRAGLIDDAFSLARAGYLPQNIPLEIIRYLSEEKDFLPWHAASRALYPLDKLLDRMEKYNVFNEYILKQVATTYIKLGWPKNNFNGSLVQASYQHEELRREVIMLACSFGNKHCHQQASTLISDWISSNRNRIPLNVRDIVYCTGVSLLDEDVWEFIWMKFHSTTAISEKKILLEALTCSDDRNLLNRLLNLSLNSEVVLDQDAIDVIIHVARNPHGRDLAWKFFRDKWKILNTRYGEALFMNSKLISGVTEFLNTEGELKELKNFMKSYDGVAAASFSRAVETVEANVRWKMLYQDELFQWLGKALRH

Compound: COc1ccc(Cl)cc1NC(=O)[C@@H]1CCCN1C(=O)[C@H](CC(N)=O)NC(=O)[C@@H]1CCC(=O)N1 [5-chloro-2-methoxy anilide]
Ki (TRH-DE [2]; [3]): 9.95 µM

Compound: Glp-NorVal-ProNH2
Rate of hydrolysis (TRH-DE [1]): 0.04 ± 0.00 (6) U mg^−1

Compound: Cc1cc(=O)oc2cc(NC(=O)[C@H](Cc3c[nH]c4ccccc34)NC(=O)[C@H](Cc3ccc(O)cc3)NC(=O)[C@@H]3CCCN3C(=O)[C@H](CC(N)=O)NC(=O)[C@@H]3CCC(=O)N3)ccc12 [Glp-Asn-Pro-Tyr-Trp-AMC] ([pGlu]NPYW-{AMC})
Ki (TRH-DE [2]; [4]): 0.04 µM

Compound: NC(=O)[C@@H]1CCCN1C(=O)CNC(=O)[C@@H]1CCC(=O)N1 [Glp-Gly-ProNH2] ([pGlu]-Gly-Pro-NH2)
hydrolysis by TRH-DE (release of Glp) (TRH-DE [1]): No detectable Glp | Ki (TRH-DE [2]; [5]): > 1000 µM | inhibition at 1000 µM (TRH-DE [2]): 8%

Compound: Cc1cc(=O)oc2cc(NC(=O)[C@H](Cc3c[nH]c4ccccc34)NC(=O)[C@@H]3CCCN3C(=O)[C@H](CC(N)=O)NC(=O)[C@@H]3CCC(=O)N3)ccc12 [Glp-Asn-Pro-Trp-AMC] ([pGlu]NPW-{AMC})
Ki (TRH-DE [2]; [6]): 0.08 µM

Compound: NC(=O)C[C@H](NC(=O)[C@@H]1CCC(=O)N1)C(=O)N1CCC[C@H]1C(=O)N[C@@H](Cc1c[nH]c2ccccc12)C(N)=O [Glp-Asn-Pro-Trp-NH2] ([pGlu]NPW-NH2)
Ki (TRH-DE [2]; [6]): 5.17 µM

Compound: NC(=O)C[C@@H](NC(=O)[C@@H]1CCC(=O)N1)C(=O)N1CCC[C@H]1C(N)=O [Glp-D-Asn-ProNH2] ([pGlu]-[dN]-Pro-NH2)
hydrolysis by TRH-DE (release of Glp) (TRH-DE [1]): No detectable Glp | Ki (TRH-DE [2]; [5]): > 1000 µM | inhibition at 1000 µM (TRH-DE [2]): 2%

Compound: NC(=O)C[C@H](NC(=O)[C@@H]1CCC(=O)N1)C(=O)N1CCC[C@H]1C(=O)NC1CCCc2ccccc21 (single isomer, unassigned)
Ki (TRH-DE [2]; [3]): 63.2 µM

Compound: NC(=O)[C@@H]1CCCN1C(=O)[C@@H](NC(=O)[C@@H]1CCC(=O)N1)c1ccccc1 [Glp-Phg-ProNH2] ([pGlu]-[Phg]-Pro-NH2)
hydrolysis by TRH-DE (release of Glp) (TRH-DE [1]): No detectable Glp | Ki (TRH-DE [2]; [4]): 356 ± 19 µM | inhibition at 1000 µM (TRH-DE [2]): 57%

Compound: NC(=O)C[C@H](NC(=O)[C@@H]1CCC(=O)N1)C(=O)N1CCC[C@H]1C(=O)N[C@@H](Cc1ccc(O)cc1)C(N)=O [Glp-Asn-Pro-Tyr-NH2] ([pGlu]NPY-NH2)
Ki (TRH-DE [2]; [6]): 10.3 µM

Further lines, with some results ahead:

Glp produced (TRH-DE [1]; 1 mM peptide, overnight incubation with TRH-DE): 0.2 mM | Rate of hydrolysis (TRH-DE [1]): 0.02 ± 0.00 (3) U mg^−1
Compound: [pGlu]-Ala-Pro-NH2
hydrolysis by TRH-DE (release of Glp) (TRH-DE [1]): not completely degraded; also recorded: only partially degraded

Rate of hydrolysis (TRH-DE [1]): 0.14 ± 0.01 (5) U mg^−1
Compound: [pGlu]-Thr-Pro-NH2

Ki (TRH-DE [2]; [3]): 0.86 µM
Compound: COc1cccc(NC(=O)[C@@H]2CCCN2C(=O)[C@H](CC(N)=O)NC(=O)[C@@H]2CCC(=O)N2)c1 [m-anisidide]

Rate of hydrolysis (TRH-DE [1]): 0.05 ± 0.00 (3) U mg^−1
Compound: [pGlu]-[hPhe]-Pro-NH2

Rate of hydrolysis (TRH-DE [1]): 0.66 ± 0.04 (5) U mg^−1
Compound: NC(=O)[C@@H]1CCCN1C(=O)[C@H](Cc1ccc(O)cc1)NC(=O)[C@@H]1CCC(=O)N1 [Glp-Tyr-ProNH2] ([pGlu]-Tyr-Pro-NH2)

Rate of hydrolysis (TRH-DE [1]): 0.05 ± 0.00 (3) U mg^−1
Compound: [pGlu]-Val-Pro-NH2

Rate of hydrolysis (TRH-DE [1]): 0.05 ± 0.00 (3) U mg^−1
Compound: [pGlu]-Ser-Pro-NH2

hydrolysis by TRH-DE (release of Glp) (TRH-DE [1]): No detectable Glp | Ki (TRH-DE [2]; [5]): > 1000 µM | inhibition at 1000 µM (TRH-DE [2]): 3%
Compound: NC(=O)[C@@H]1CCCN1C(=O)[C@@H]1CCCN1C(=O)[C@@H]1CCC(=O)N1 [Glp-Pro-ProNH2] ([pGlu]-Pro-Pro-NH2)
